Experimental data taken from patent publication US20200370033A1, “BIOLOGICAL ASSEMBLY INCLUDING BIOLOGICAL COMPONENT AND SHIELD” (Regents of the University of Minnesota, priority 2018, published 2020).

Tests used:
[1] = Detergent and micelle properties; type: physicochemical; details: for Est. Micelle MW: estimated micelle molecular weight
[2] = tested on: E. coli DH5α expressing homoprotocatechuate 2,3-dioxygenase (2,3-HPCD); type: cell-based; details: 1% w/v for 20 minutes
Experimental: A 200 μL aliquot of 500 μM DHPAC in 50 mM PB at pH 7.5 was added to each well and A380 was measured for up to one hour. The data was then fit to a first order reaction model of the form:
Cp(t)=Cs,0(1−e^−k^r^t) (4)
Cp is the product concentration, Cs,0 is the initial substrate concentration, and kr is the first order reaction rate constant.

[3] = detergent micelle; cited from earlier work

Row | Substance | micelle hydrodynamic radii [1] | Est. Micelle MW [1] | change in biocatalytic activity after detergent/surfactant treatment [2] | Aggregation Number [3]
1 | polyethylene glycol p-(1,1,3,3-tetramethylbutyl)-phenyl ether [Triton X-100] | ~4 nm | 228 kDa | modest | 140
2 | polysorbate 85 [Tween 85] |  | 110 kDa | modest | 60
